This test has as its target T1, USP13 (Homo sapiens, UniProt Q92995).
T1 construct: ELISA for USP13 (MyBioSource, Cat # MBS9335287, San Diego, CA, USA); endogenous in cells; host or cells: human SH-SY5Y neuroblastoma cells transfected with human wild-type alpha-synuclein
T1 sequence (Q92995 1-863): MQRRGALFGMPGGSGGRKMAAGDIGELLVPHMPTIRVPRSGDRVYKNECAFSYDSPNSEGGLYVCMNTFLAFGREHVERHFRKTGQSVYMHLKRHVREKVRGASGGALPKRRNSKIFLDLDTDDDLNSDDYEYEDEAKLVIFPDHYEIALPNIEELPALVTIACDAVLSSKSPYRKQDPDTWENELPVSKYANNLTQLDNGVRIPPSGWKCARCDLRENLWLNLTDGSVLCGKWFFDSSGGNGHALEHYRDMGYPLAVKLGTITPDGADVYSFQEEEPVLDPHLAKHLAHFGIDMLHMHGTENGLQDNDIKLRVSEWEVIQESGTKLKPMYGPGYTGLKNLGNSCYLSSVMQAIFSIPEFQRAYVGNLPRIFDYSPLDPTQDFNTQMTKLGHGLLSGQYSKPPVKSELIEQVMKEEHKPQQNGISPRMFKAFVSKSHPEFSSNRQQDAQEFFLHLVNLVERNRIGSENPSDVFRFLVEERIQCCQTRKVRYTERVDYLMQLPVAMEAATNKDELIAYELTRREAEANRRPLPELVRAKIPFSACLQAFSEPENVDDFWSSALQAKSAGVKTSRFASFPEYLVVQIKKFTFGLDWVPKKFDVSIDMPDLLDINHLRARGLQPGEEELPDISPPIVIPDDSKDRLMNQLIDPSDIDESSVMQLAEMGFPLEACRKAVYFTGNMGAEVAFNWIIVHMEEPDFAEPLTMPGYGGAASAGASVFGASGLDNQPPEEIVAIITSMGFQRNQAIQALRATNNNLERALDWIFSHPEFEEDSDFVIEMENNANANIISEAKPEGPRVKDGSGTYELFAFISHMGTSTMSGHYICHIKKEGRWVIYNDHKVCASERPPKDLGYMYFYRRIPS
The test can be described thus: USP13 activity via functional ELISA in alpha-synuclein transfected SH-SY5Y cells. The format is cell-based. To be noted: SH-SY5Y cells transfected with human alpha-synuclein, 5 h, read-out: Estimated IC50 to USP13. How it is done: Stably transfected human neuroblastoma SH-SY5Y cells with human wild-type alpha-synuclein were treated with 1 mM, 100 µM, 10 µM, 1 µM, 0.1 µM, 0.01 µM and 0.001 µM of each of BK50118-A, BK50118-B, BK50118-C, CL3-499, CL3-512 and CL3-514 dissolved in an equivalent volume of DMSO for 5 h. […] The other 5 compounds were also able to lower alpha-synuclein levels but with less potency (Figure 3H,I,K–M).
SH-SY5Y cells were transiently transfected for 24 h with human wild-type α-synuclein using Fugene HD transfection reagent (Promega, E2311, Madison, WI, USA) according to manufacturer’s protocol. Cells were treated with 1 mM, 0.1 mM, 0.01 mM, 1 µM, 0.1 µM, 0.01 µM and 0.001 µM of each novel compounds (BK50118-A, BK50118-B, BK50118-C, CL3-499, CL3-512 and CL3-514) dissolved in DMSO for 5 h. Cells were then harvested on ice by removing culture medium and adding 0.2 mL 1x sodium-tris, EDTA, NP-40 (STEN) buffer (50 mM Tris (pH 7.6), 150 mM NaCl, 2 mM EDTA, 0.2 % NP-40, 0.2 % with Halt protease and phosphatase inhibitor solution (ThermoFisher, 78446). Cells were detached with a cell scraper and collected into centrifuge tubes and incubated at 4 °C for 30 min with agitation. Samples were stored at −80 °C and used for ELISA analyses. For cell viability assay, SHSY-5Y cells stably expressing human wild-type alpha-synuclein were treated with 1 mM, 0.1 mM, 0.01 mM, 1 µM, 0.1 µM, 0.01 µM and 0.001 µM of each novel compound (BK50118-A, BK50118-B, BK50118-C, CL3-499, CL3-512 and CL3-514) dissolved in DMSO for 5 h. Cell viability was determined via lactate dehydrogenase assay on culture media (Thermofisher, 88954) and MTT assay on plated cells (Thermofisher, V13154).
The ELISA for USP13 (MyBioSource, Cat # MBS9335287, San Diego, CA, USA), Human alpha-synuclein (Biolegend, Cat # 844101, San Diego, CA, USA) and specific p-Tau ser396 (Invitrogen, KHB7031, Waltham, MA, USA) were performed on cell or brain tissue extracts as described above according to manufacturers’ protocol.
All statistical analyses were performed using GraphPad Prism version 5.0 (GraphPad software, Inc, San Diego, CA, USA). Two-tailed student’s t-test was used in comparison of means of two groups. Ordinary one-way analysis of variance (ANOVA) followed by Newman–Keuls or Dunnett comparison post hoc tests were used in comparison of means of multiple groups. Asterisks denote actual p-value significances (* < 0.05, ** < 0.01, *** < 0.001 and **** < 0.0001), and N is the number of animals or the number of independent experiments (cell culture) per group. Unless otherwise indicated, data are expressed as Mean ± SD. IC50 to USP13 levels was also estimated using GraphPad Prism version 5.0 (GraphPad software, Inc, San Diego, CA, USA).

This is an account of results in publication PMC8467576, “Novel Ubiquitin Specific Protease-13 Inhibitors Alleviate Neurodegenerative Pathology” (Metabolites, 2021).

Molecules are shown by their SMILES. pIC50: −log10 of the molar value.

Broadly, the pIC50 is the negative decadic logarithm of the IC50, by convention in mol/L.

In the case of `Fc1ccc2nccc(OCc3ccccc3)c2c1` [BK50118-C, 4-benzyloxy-6-fluoroquinoline], the pIC50 is 9.38.
